Source: ChEMBL document CHEMBL5154811, “Discovery of SPH5030, a Selective, Potent, and Irreversible Tyrosine Kinase Inhibitor for HER2-Amplified and HER2-Mutant Cancer Treatment” (J Med Chem, 2022)

Key:
[1] = target: T1, Receptor tyrosine-protein kinase erbB-2 (Homo sapiens, UniProt P04626); experiment: Inhibition of wild type human GST-tagged HER2 (676 to end residues) expressed in baculovirus infected Sf9 cells incubated for 30 mins in presence of ATP by HTRF analysis
BT-474 [2] = experiment: Antiproliferative activity against human BT-474 cells assessed as inhibition of cell growth incubated for 72 hrs by Celltiter-Glo assay; format: functional, cell-based; conditions: BT-474, 72 h
NCI-N87 [3] = experiment: Antiproliferative activity against human NCI-N87 cells assessed as inhibition of cell growth incubated for 72 hrs by Celltiter-Glo assay; format: functional, cell-based; conditions: NCI-N87, 72 h
[4] = target: T2, Epidermal growth factor receptor (Homo sapiens, UniProt P00533); experiment: Inhibition of wild type human N-terminal GST tagged EGFR (669 to 1210 residues) expressed in Sf21 insect cells incubated for 30 mins in presence of ATP by HTRF analysis
T2 sequence (P00533 whole entry, the tested form may be a part): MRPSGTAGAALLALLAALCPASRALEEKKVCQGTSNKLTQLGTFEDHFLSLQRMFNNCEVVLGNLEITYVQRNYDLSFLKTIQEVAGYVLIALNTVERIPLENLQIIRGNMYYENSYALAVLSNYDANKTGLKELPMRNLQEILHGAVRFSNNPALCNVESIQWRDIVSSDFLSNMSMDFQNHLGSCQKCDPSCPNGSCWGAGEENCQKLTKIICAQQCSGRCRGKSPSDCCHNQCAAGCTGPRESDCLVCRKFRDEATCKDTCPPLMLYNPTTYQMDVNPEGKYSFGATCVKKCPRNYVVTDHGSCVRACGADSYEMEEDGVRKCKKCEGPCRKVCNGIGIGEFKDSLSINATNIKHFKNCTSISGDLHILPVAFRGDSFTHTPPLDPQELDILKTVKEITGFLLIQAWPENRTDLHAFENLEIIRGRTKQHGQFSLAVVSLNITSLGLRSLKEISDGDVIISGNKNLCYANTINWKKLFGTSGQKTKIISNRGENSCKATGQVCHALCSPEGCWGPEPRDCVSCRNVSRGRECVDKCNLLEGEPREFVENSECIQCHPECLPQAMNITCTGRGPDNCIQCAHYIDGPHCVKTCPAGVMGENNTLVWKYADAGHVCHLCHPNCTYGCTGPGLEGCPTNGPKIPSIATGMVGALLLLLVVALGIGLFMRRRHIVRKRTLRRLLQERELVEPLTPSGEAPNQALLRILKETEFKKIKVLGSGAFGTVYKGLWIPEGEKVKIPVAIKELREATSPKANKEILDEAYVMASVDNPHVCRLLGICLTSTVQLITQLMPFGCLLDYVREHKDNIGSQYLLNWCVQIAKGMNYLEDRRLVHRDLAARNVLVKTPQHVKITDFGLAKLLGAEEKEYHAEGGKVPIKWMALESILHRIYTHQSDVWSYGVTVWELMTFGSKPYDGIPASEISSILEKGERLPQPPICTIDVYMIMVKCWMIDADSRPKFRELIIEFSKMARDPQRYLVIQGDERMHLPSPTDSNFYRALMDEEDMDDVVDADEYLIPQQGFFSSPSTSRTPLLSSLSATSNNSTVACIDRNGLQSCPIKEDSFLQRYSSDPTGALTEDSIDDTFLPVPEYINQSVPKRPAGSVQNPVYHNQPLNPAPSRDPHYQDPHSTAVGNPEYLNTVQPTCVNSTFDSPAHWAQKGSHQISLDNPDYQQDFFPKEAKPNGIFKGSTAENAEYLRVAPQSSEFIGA

BaF3 [5] = experiment: Antitumor activity against mouse BaF3 cells harbouring HER2 A775_G776insYVMA mutant xenografted in BALB/c nude mouse assessed as tumor growth inhibition at 20 mg/kg, po qd measured for 13 days relative to control; format: functional; conditions: BaF3, 312 h, time 13 day, read-out: TGI
MDA-MB-468 = experiment: Antiproliferative activity against human MDA-MB-468 cells overexpressing wild type EGFR assessed as cell growth inhibition incubated for 72 hrs by Celltiter-Glo assay; format: functional, cell-based; conditions: MDA-MB-468, 72 h
[6] = Antiproliferative activity against human KM12-Luc cells assessed as cell growth inhibition incubated for 72 hrs by Celltiter-Glo assay; format: functional, cell-based
NCI-H441 = experiment: Antiproliferative activity against human NCI-H441 cells assessed as cell growth inhibition incubated for 72 hrs by Celltiter-Glo assay; format: functional, cell-based; conditions: NCI-H441, 72 h
BT-474 [7] = experiment: Antitumor activity against human BT-474 cells xenografted in BALB/c nude mouse assessed as tumor growth inhibition at 20 mg/kg/day, po administered once daily for 21 days relative to control; format: functional; conditions: BT-474, 504 h, time 21 day, read-out: TGI
NCI-N87 [8] = experiment: Antitumor activity against human NCI-N87 cells xenografted in BALB/c nude mouse assessed as tumor growth inhibition at 20 mg/kg/day, po administered once daily for 21 days relative to control; format: functional; conditions: NCI-N87, 504 h, time 21 day, read-out: TGI
MFE-280 = experiment: Antiproliferative activity against human MFE-280 cells assessed as cell growth inhibition incubated for 72 hrs by Celltiter-Glo assay; format: functional, cell-based; conditions: MFE-280, 72 h
ES-2 = experiment: Antiproliferative activity against human ES2 cells assessed as cell growth inhibition incubated for 72 hrs by Celltiter-Glo assay; format: functional, cell-based; conditions: ES-2, 72 h
COLO-678 = experiment: Antiproliferative activity against human COLO-678 cells assessed as cell growth inhibition incubated for 72 hrs by Celltiter-Glo assay; format: functional, cell-based; conditions: COLO-678, 72 h
NUGC-4 = experiment: Antiproliferative activity against human NUGC-4 cells assessed as cell growth inhibition incubated for 72 hrs by Celltiter-Glo assay; format: functional, cell-based; conditions: NUGC-4, 72 h
SK-BR-3 = experiment: Antiproliferative activity against human SK-BR-3 cells overexpressing wild type HER2 assessed as cell growth inhibition incubated for 72 hrs by Celltiter-Glo assay; format: functional, cell-based; conditions: SK-BR-3, 72 h
BaF3 [9] = experiment: Antiproliferative activity against mouse BaF3 cells harbouring HER2 […] mutant assessed as inhibition of cell growth incubated for 72 hrs by Celltiter-Glo assay; format: functional, cell-based; conditions: BaF3, 72 h
[10] = target: Receptor tyrosine-protein kinase erbB-2 (Homo sapiens, UniProt P04626, D769H); experiment: Inhibition of HER2 D769H mutant (unknown origin) incubated for 120 mins in presence of 33P-ATP by P81 ion exchange cellulose chromatography
[11] = target: T1, Receptor tyrosine-protein kinase erbB-2; experiment: Inhibition of HER2 (unknown origin)
[12] = target: Receptor tyrosine-protein kinase erbB-2 (Homo sapiens, UniProt P04626, D769Y); experiment: Inhibition of HER2 D769Y mutant (unknown origin) incubated for 120 mins in presence of 33P-ATP by P81 ion exchange cellulose chromatography
Sequence of Receptor tyrosine-protein kinase erbB-2 (Homo sapiens, UniProt P04626, D769Y) (P04626 23-1255 D769Y limits assumed): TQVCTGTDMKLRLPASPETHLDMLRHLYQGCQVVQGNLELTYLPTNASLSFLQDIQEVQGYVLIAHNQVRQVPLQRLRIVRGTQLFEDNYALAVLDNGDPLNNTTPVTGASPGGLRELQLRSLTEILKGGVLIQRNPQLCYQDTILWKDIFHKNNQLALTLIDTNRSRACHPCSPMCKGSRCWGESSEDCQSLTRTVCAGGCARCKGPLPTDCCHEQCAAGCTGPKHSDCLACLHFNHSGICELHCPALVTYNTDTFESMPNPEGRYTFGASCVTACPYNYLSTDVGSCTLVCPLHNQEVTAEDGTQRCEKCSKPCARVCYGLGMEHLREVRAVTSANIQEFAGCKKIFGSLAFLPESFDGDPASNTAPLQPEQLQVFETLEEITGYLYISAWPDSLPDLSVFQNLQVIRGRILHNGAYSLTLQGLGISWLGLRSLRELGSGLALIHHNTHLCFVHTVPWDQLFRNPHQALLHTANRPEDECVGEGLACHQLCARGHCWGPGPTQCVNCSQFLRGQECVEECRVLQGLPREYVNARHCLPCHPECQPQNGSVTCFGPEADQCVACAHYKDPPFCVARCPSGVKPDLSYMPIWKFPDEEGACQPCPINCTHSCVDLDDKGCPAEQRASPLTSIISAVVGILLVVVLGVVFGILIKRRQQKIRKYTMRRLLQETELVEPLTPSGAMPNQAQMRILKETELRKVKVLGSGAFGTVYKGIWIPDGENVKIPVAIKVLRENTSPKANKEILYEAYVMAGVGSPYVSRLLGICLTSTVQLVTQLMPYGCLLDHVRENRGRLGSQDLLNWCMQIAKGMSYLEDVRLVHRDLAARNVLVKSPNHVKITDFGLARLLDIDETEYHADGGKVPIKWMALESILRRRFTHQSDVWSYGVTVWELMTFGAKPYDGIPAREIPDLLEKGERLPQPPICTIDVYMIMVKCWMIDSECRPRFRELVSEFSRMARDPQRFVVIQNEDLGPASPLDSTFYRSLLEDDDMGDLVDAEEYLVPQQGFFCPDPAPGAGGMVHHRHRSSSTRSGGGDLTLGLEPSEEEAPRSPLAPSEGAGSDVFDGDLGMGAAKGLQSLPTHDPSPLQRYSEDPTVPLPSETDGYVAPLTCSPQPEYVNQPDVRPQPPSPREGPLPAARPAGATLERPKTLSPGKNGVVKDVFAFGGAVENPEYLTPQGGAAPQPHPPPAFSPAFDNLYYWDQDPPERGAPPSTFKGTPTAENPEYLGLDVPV

[13] = target: Receptor tyrosine-protein kinase erbB-2 (Homo sapiens, UniProt P04626, R896C); experiment: Inhibition of HER2 R896C mutant (unknown origin) incubated for 120 mins in presence of 33P-ATP by P81 ion exchange cellulose chromatography
[14] = target: Receptor tyrosine-protein kinase erbB-2 (Homo sapiens, UniProt P04626, V777L); experiment: Inhibition of HER2 V777L mutant (unknown origin) incubated for 120 mins in presence of 33P-ATP by P81 ion exchange cellulose chromatography
Sequence of Receptor tyrosine-protein kinase erbB-2 (Homo sapiens, UniProt P04626, V777L) (P04626 23-1255 V777L limits assumed): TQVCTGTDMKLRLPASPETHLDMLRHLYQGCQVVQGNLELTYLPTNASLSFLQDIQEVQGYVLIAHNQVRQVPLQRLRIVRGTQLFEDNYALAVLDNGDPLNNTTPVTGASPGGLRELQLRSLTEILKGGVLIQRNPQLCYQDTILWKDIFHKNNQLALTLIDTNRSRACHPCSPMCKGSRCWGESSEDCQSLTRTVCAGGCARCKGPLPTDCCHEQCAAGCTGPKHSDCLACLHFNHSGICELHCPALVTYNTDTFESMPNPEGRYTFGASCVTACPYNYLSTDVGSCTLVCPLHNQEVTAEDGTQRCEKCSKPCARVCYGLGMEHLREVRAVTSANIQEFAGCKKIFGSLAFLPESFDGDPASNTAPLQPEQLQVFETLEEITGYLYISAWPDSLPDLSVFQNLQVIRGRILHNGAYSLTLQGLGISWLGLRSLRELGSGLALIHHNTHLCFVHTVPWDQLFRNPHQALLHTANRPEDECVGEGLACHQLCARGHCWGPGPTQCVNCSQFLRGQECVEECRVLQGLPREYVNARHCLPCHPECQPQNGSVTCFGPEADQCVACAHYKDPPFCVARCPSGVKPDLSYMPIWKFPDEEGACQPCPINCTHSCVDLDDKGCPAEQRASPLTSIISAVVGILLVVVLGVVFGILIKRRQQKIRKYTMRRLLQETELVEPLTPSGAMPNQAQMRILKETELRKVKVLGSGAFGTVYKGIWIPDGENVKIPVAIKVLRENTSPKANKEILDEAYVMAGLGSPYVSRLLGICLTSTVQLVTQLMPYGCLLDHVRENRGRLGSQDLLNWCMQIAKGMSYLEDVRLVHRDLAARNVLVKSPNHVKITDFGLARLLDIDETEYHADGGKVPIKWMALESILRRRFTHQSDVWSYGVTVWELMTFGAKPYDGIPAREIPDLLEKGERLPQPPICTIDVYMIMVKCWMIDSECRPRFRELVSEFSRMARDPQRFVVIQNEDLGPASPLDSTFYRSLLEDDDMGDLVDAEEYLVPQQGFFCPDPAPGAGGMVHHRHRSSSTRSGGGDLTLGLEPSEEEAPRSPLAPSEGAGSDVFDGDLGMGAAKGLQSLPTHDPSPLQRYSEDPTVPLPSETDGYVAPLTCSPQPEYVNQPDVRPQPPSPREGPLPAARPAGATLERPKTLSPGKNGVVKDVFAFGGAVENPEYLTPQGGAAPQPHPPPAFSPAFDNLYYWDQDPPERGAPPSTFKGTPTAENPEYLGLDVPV

[15] = target: T2, Epidermal growth factor receptor; experiment: Inhibition of EGFR (unknown origin)

T1 sequence (P04626 whole entry): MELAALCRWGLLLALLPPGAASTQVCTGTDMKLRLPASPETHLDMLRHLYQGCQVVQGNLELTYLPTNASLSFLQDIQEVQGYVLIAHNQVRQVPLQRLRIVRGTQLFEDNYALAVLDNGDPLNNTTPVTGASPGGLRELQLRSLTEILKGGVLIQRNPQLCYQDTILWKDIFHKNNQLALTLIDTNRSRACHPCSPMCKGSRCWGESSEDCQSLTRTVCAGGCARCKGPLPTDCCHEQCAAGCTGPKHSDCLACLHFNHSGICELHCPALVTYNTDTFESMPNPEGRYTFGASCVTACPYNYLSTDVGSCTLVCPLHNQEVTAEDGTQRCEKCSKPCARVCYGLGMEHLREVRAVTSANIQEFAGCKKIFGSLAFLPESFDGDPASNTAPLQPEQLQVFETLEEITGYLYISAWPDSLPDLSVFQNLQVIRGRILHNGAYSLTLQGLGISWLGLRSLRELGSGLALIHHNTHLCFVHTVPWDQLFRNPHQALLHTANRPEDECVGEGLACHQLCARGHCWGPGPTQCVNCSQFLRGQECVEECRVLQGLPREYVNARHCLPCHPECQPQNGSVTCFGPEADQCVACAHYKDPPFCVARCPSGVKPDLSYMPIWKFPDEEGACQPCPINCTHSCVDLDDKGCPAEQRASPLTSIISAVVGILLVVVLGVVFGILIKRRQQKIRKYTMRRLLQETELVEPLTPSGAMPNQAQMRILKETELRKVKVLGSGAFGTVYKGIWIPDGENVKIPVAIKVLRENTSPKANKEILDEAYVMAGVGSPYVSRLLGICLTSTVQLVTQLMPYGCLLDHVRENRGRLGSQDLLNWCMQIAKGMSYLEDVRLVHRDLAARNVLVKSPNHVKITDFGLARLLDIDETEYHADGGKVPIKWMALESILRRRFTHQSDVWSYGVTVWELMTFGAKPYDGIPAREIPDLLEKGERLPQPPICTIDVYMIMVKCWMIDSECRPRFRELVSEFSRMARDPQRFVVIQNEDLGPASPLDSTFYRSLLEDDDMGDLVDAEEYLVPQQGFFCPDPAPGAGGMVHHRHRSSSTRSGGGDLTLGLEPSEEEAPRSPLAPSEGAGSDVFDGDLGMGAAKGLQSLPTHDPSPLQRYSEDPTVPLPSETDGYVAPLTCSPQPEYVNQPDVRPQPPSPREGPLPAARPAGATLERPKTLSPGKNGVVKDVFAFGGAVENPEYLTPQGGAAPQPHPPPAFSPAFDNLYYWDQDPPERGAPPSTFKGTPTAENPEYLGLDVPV

`Cc1cc(Nc2ncnc3cc(O)c(NC(=O)/C=C/[C@H]4CCCN4C)cc23)ccc1Oc1cnc2ccnn2c1` showed an IC50 [1] of 2.41 nM, an IC50 (BT-474 [2]) of 3.11 nM and an IC50 (NCI-N87 [3]) of 1.9 nM. The IC50 [4] was 1.03 nM.

Work on `Cc1cc(Nc2ncnc3cc(O)c(NC(=O)/C=C/[C@H]4CCCN4C)cc23)ccc1Oc1ccn2ccnc2c1` yielded an IC50 [1] of 1.7 nM, an IC50 (BT-474 [2]) of 4.63 nM and an IC50 (NCI-N87 [3]) of 4.55 nM. It also gave an IC50 [4] of 2.31 nM.

In the case of `Cc1cc(Nc2ncnc3cc(O)c(NC(=O)/C=C/[C@H]4CCCN4C)cc23)ccc1Oc1ccn2ncnc2c1`, the IC50 [1] is reported as 1.43 nM, the IC50 (BT-474 [2]) is reported as 2.4 nM and the IC50 (NCI-N87 [3]) is reported as 2.65 nM. For the same molecule, the IC50 [4] was 2.8 nM.

In the case of `COCC(=O)NC/C=C/c1ccc2ncc(C#N)c(Nc3ccc(Oc4cc5nncn5cn4)c(C)c3)c2c1`, the IC50 (BT-474 [2]) is reported as 369 nM, the IC50 (NCI-N87 [3]) is reported as 441 nM and the IC50 [4] is reported as 1830 nM.

For `Cc1cc(Nc2ncnc3cc(O)c(NC(=O)/C=C/[C@H]4CCCN4C)cc23)ccc1Oc1ccc2nccn2c1`, the IC50 [1] was 6.42 nM, the IC50 (BT-474 [2]) was 5.22 nM and the IC50 (NCI-N87 [3]) was 4.08 nM. It also gave an IC50 [4] of 2.32 nM.

Molecule `Cc1cc(Nc2ncnc3cc(O)c(NC(=O)/C=C/[C@H]4CCCN4C)cc23)ccc1Oc1cnn2cnnc2c1` has an IC50 [1] of 16 nM, an IC50 (BT-474 [2]) of 20.8 nM and an IC50 (NCI-N87 [3]) of 28.3 nM. The IC50 [4] was 11.8 nM.

Work on `COCC(=O)NC/C=C/c1ccc2ncnc(Nc3ccc(Oc4cc5nncn5cn4)c(C)c3)c2c1` yielded an IC50 [1] of 2.55 nM, an IC50 (BT-474 [2]) of 50 nM and an IC50 (NCI-N87 [3]) of 80.7 nM. For the same molecule, the IC50 [4] was 110 nM.

In the case of `Cc1cc(Nc2c(C#N)cnc3ccc(NC(=O)/C=C/[C@H]4CCCN4C)cc23)ccc1Oc1cc2nncn2cn1`, the IC50 [1] is reported as 10.8 nM, the IC50 (BT-474 [2]) is reported as 7.44 nM and the IC50 (NCI-N87 [3]) is reported as 6.7 nM. It also gave an IC50 [4] of 3.13 nM.

Molecule `CCOc1cc2ncc(C#N)c(Nc3ccc(OCc4ccccn4)c(Cl)c3)c2cc1NC(=O)/C=C/CN(C)C` [NERATINIB] has an inhibition in vivo at 20 mg/kg (BaF3 [5]) of 56%, an IC50 (BT-474 [2]) of 2.06 nM and an IC50 (MDA-MB-468) of 406 nM. For the same molecule, the IC50 [6] was 1730 nM, the IC50 (NCI-N87 [3]) was 0.64 nM and the IC50 (NCI-H441) was 1280 nM. The inhibition in vivo at 20 mg/kg/day (BT-474 [7]) was 119%, the inhibition in vivo at 20 mg/kg/day (NCI-N87 [8]) was 112% and the IC50 (MFE-280) was 1290 nM. For the same molecule, the IC50 (ES-2) was 788 nM, the IC50 (COLO-678) was 694 nM and the IC50 (NUGC-4) was 38.1 nM. For the same molecule, the IC50 (SK-BR-3) was 10.3 nM.

`CCOc1cc2ncc(C#N)c(Nc3ccc(OCc4ccccn4)c(Cl)c3)c2cc1NC(=O)/C=C/[C@H]1CCCN1C` [PYROTINIB] gave an IC50 [1] of 9.07 nM, an inhibition in vivo at 20 mg/kg (BaF3 [5]) of 55% and an IC50 (BaF3 [9]) of 15 nM. For the same molecule, the IC50 (BT-474 [2]) was 3.97 nM, the IC50 [10] was 6.65 nM and the IC50 (MDA-MB-468) was 659 nM. For the same molecule, the IC50 [6] was 1690 nM, the IC50 [11] was 4.43 nM and the IC50 (NCI-N87 [3]) was 0.85 nM. For the same molecule, the IC50 (NCI-H441) was 1890 nM, the IC50 [12] was 57.4 nM and the inhibition in vivo at 20 mg/kg/day (BT-474 [7]) was 118%. It also gave an inhibition in vivo at 20 mg/kg/day (NCI-N87 [8]) of 113%, an IC50 (MFE-280) of 1560 nM and an IC50 (ES-2) of 778 nM. For the same molecule, the IC50 (COLO-678) was 1840 nM, the IC50 (NUGC-4) was 60.8 nM and the IC50 (SK-BR-3) was 14 nM. The IC50 [13] was 2.4 nM and the IC50 [14] was 3.91 nM.

Work on `Cc1cc(Nc2ncnc3ccc(NC4=NC(C)(C)CO4)cc23)ccc1Oc1ccn2ncnc2c1` [TUCATINIB] yielded an IC50 [11] of 6.9 nM and an IC50 [15] of 449 nM.
